These results are taken from ChEMBL document CHEMBL6114934, “Guaiacol-chalcone and nitroguaiacol-chalcone derivatives: In vitro and in silico antibacterial evaluation” (2025).

The test system of assay [1] is Staphylococcus aureus. As to the kind of experiment: Antibacterial activity against Staphylococcus aureus at 256 ug/ml by broth microdilution method. The assay is classed as functional, organism-based. The settings on record: dose 256.0 µg/ml.
The test system of the next assay is Klebsiella pneumoniae. Put plainly: Antibacterial activity against Klebsiella pneumoniae at 256 ug/ml by broth microdilution method. The settings on record: dose 256.0 µg/ml. The assay is classed as functional, organism-based.
The test system of the next assay is Acinetobacter baumannii. Put plainly: Antibacterial activity against Acinetobacter baumannii at 256 ug/ml by broth microdilution method. The assay is classed as functional, organism-based. The following applies: dose 256.0 µg/ml.
The next assay concerns Pseudomonas aeruginosa. As to the kind of experiment: Antibacterial activity against Pseudomonas aeruginosa at 256 ug/ml by broth microdilution method. The assay is classed as functional, organism-based. The following applies: dose 256.0 µg/ml.
The next assay concerns Klebsiella aerogenes. As to the kind of experiment: Antibacterial activity against Klebsiella aerogenes at 256 ug/ml by broth microdilution method. The assay is classed as functional, organism-based. The settings on record: dose 256.0 µg/ml. For orientation: Dilution methods test growth across graded concentrations, often in twofold steps.
Assay [2] concerns Staphylococcus aureus. Put plainly: Antibacterial activity against Staphylococcus aureus by broth microdilution method. The assay is classed as functional.
The subject of assay [3] is Staphylococcus aureus. As to the kind of experiment: Antibacterial activity against methicillin-resistant Staphylococcus aureus by broth microdilution method. The assay is classed as functional.
Assay [4] has as its system Staphylococcus aureus. As to the kind of experiment: Antibacterial activity against Staphylococcus aureus. The assay is classed as functional.
Assay [5] relates to Staphylococcus aureus. As to the kind of experiment: Antibacterial activity against methicillin-resistant Staphylococcus aureus. The assay is classed as functional.

Values after ≈ are worked out from the molar mass of the structure shown. Active and inactive are the calls of the source.

For `COc1cc(C(=O)/C=C/c2ccc(Cl)cc2)cc([N+](=O)[O-])c1O`, the outcome in the assay on Staphylococcus aureus [1] was Active. Besides, the outcome in the assay with Klebsiella pneumoniae, with Acinetobacter baumannii, with Pseudomonas aeruginosa and in the assay with Klebsiella aerogenes was inactive. The MIC is 16 µg/mL (≈ 47.9 µM) in the assay on Staphylococcus aureus [2] and 32 µg/mL (≈ 95.9 µM) in the assay with Staphylococcus aureus [3].
For `COc1cc(C(=O)/C=C/c2ccc(Cl)c(Cl)c2)ccc1O`, the result with Staphylococcus aureus [1], in the assay on Klebsiella pneumoniae, with Acinetobacter baumannii, in the assay with Pseudomonas aeruginosa and with Klebsiella aerogenes was inactive.
For the compound `COc1cc(C(=O)/C=C/c2cccc(Cl)c2)ccc1O`, the result with Staphylococcus aureus [1], in the assay on Klebsiella pneumoniae, in the assay with Acinetobacter baumannii, with Pseudomonas aeruginosa and in the assay on Klebsiella aerogenes was inactive.
As to `CCOc1ccc(/C=C/C(=O)c2ccc(O)c(OC)c2)cc1`, the outcome with Staphylococcus aureus [1] was Active. Also, the outcome in the assay on Klebsiella pneumoniae, in the assay with Acinetobacter baumannii, with Pseudomonas aeruginosa and in the assay with Klebsiella aerogenes was inactive. Moreover, the MIC with Staphylococcus aureus [2] turned out to be 16 µg/mL (≈ 53.6 µM); against Staphylococcus aureus [3] it was 32 µg/mL (≈ 107 µM).
Take `CC(=O)N1N=C(c2cc(O)c(O)c([N+](=O)[O-])c2)CC1c1ccc(Cl)cc1` (centres undefined): the MIC is 0.5 µg/mL (≈ 1.33 µM) with Staphylococcus aureus [4] and 32 µg/mL (≈ 85.2 µM) against Staphylococcus aureus [5].
On to `COc1cc(C(=O)/C=C/c2cccc(F)c2)cc([N+](=O)[O-])c1O`, for which the result in the assay with Staphylococcus aureus [1] was Active. Besides, the outcome in the assay on Klebsiella pneumoniae, in the assay with Acinetobacter baumannii, in the assay on Pseudomonas aeruginosa and with Klebsiella aerogenes was inactive. Besides, the minimal inhibitory concentration (MIC) against Staphylococcus aureus [2] was 32 µg/mL (≈ 101 µM); in the assay with Staphylococcus aureus [3] it was 64 µg/mL (≈ 202 µM).
For `COc1cc(C(=O)/C=C/c2ccc([N+](=O)[O-])cc2)cc([N+](=O)[O-])c1O`, the outcome in the assay with Staphylococcus aureus [1] was Active. Moreover, the outcome in the assay on Klebsiella pneumoniae, in the assay with Acinetobacter baumannii, in the assay with Pseudomonas aeruginosa and in the assay on Klebsiella aerogenes was inactive. Besides, the figures for the MIC against Staphylococcus aureus [2] and in the assay on Staphylococcus aureus [3] were 32 µg/mL (≈ 92.9 µM) and 64 µg/mL (≈ 186 µM), respectively.
Regarding `O=C(/C=C/c1ccc(Cl)c(Cl)c1)c1cc(O)c(O)c([N+](=O)[O-])c1`, the figures for the MIC against Staphylococcus aureus [4] and in the assay on Staphylococcus aureus [5] were 1 µg/mL (≈ 2.82 µM) and 16 µg/mL (≈ 45.2 µM), respectively.
On to `COc1cc(C(=O)/C=C/c2cccc(F)c2)ccc1O`, for which the result in the assay on Staphylococcus aureus [1], in the assay on Klebsiella pneumoniae, with Acinetobacter baumannii, in the assay on Pseudomonas aeruginosa and with Klebsiella aerogenes was inactive.
For the compound `COc1cc(C(=O)/C=C/c2ccc(Cl)c(Cl)c2)cc([N+](=O)[O-])c1O`, in the assay on Staphylococcus aureus [1], the result was Active. The outcome in the assay on Klebsiella pneumoniae, in the assay with Acinetobacter baumannii, in the assay on Pseudomonas aeruginosa and in the assay on Klebsiella aerogenes was inactive. Besides, the MIC in the assay on Staphylococcus aureus [2] and against Staphylococcus aureus [3] was 8 µg/mL (≈ 21.7 µM) each time.
Turning to `COc1cc(C(=O)/C=C/c2ccc(Cl)cc2Cl)cc([N+](=O)[O-])c1O`, in the assay with Staphylococcus aureus [1], the result was Active. Besides, the result in the assay with Klebsiella pneumoniae, in the assay with Acinetobacter baumannii, with Pseudomonas aeruginosa and in the assay on Klebsiella aerogenes was inactive. The MIC against Staphylococcus aureus [2] and against Staphylococcus aureus [3] was 256 µg/mL (≈ 695 µM) each time.
On to `COc1cc(C(=O)/C=C/c2cccc(C(F)(F)F)c2)ccc1O`, for which the outcome in the assay on Staphylococcus aureus [1], with Klebsiella pneumoniae, in the assay with Acinetobacter baumannii, in the assay with Pseudomonas aeruginosa and in the assay on Klebsiella aerogenes was inactive.
For `COc1cc(C(=O)/C=C/c2ccc(F)cc2)ccc1O`, the outcome in the assay on Staphylococcus aureus [1], in the assay on Klebsiella pneumoniae, in the assay with Acinetobacter baumannii, with Pseudomonas aeruginosa and in the assay with Klebsiella aerogenes was inactive.
As for `COc1cc(C(=O)/C=C/c2cccc(Cl)c2)cc([N+](=O)[O-])c1O`, in the assay with Staphylococcus aureus [1], the outcome was Active. For the same compound, the result with Klebsiella pneumoniae, in the assay with Acinetobacter baumannii, in the assay with Pseudomonas aeruginosa and in the assay on Klebsiella aerogenes was inactive. Further, the results for the MIC against Staphylococcus aureus [2] and against Staphylococcus aureus [3] were 16 µg/mL (≈ 47.9 µM) and 64 µg/mL (≈ 192 µM), respectively.
Regarding `COc1cc(C(=O)/C=C/c2ccc(SC)cc2)cc([N+](=O)[O-])c1O`, in the assay with Staphylococcus aureus [1], the outcome was Active. The outcome in the assay with Klebsiella pneumoniae, with Acinetobacter baumannii, in the assay with Pseudomonas aeruginosa and with Klebsiella aerogenes was inactive. Also, the MIC against Staphylococcus aureus [2] was 128 µg/mL (≈ 371 µM); in the assay with Staphylococcus aureus [3] it was over 256 µg/mL.
In the case of `COc1cc(C(=O)/C=C/c2ccc(SC)cc2)ccc1O`, the result in the assay with Staphylococcus aureus [1], in the assay with Klebsiella pneumoniae, in the assay with Acinetobacter baumannii, in the assay with Pseudomonas aeruginosa and with Klebsiella aerogenes was inactive.
Regarding `COc1cc(C(=O)/C=C/c2cccc(C(F)(F)F)c2)cc([N+](=O)[O-])c1O`, in the assay with Staphylococcus aureus [1], the outcome was Active. Besides, the result with Klebsiella pneumoniae, in the assay on Acinetobacter baumannii, in the assay with Pseudomonas aeruginosa and in the assay on Klebsiella aerogenes was inactive. Besides, the MIC was determined as 32 µg/mL (≈ 87.1 µM) in the assay with Staphylococcus aureus [2] and 64 µg/mL (≈ 174 µM) in the assay with Staphylococcus aureus [3].
In the case of `COc1cc(C(=O)/C=C/c2ccc(Cl)cc2)ccc1O`, the outcome in the assay with Staphylococcus aureus [1], with Klebsiella pneumoniae, in the assay on Acinetobacter baumannii, in the assay on Pseudomonas aeruginosa and in the assay on Klebsiella aerogenes was inactive.
As for `COc1cc(C(=O)/C=C/c2ccc(Cl)cc2Cl)ccc1O`, the result in the assay with Staphylococcus aureus [1], in the assay with Klebsiella pneumoniae, in the assay on Acinetobacter baumannii, in the assay with Pseudomonas aeruginosa and in the assay on Klebsiella aerogenes was inactive.
For the compound `COc1cc(C(=O)/C=C/c2ccc(F)cc2)cc([N+](=O)[O-])c1O`, the result with Staphylococcus aureus [1] was Active. For the same compound, the outcome in the assay on Klebsiella pneumoniae, in the assay on Acinetobacter baumannii, in the assay with Pseudomonas aeruginosa and in the assay with Klebsiella aerogenes was inactive. The MIC with Staphylococcus aureus [2] and in the assay on Staphylococcus aureus [3] was 64 µg/mL (≈ 202 µM) each time.
As for `COc1cc(C(=O)/C=C/c2ccc(Br)cc2F)ccc1O`, the result in the assay with Staphylococcus aureus [1], in the assay on Klebsiella pneumoniae, with Acinetobacter baumannii, in the assay on Pseudomonas aeruginosa and in the assay on Klebsiella aerogenes was inactive.

As usually defined, the MIC is the smallest concentration in the dilution series that meets the test's criterion for growth inhibition. Low values mean inhibition by little substance, high ones a need for much substance.
